The values below come from the NIST ThermoML archive (doi:10.1016/j.fluid.2007.10.004).

The conditions of this data set: Capillary rise.

Molecules are shown by their SMILES. ± gives the expanded uncertainty stated by the source.

For `CCCCn1cc[n+](C)c1.F[B-](F)(F)F` [1-butyl-3-methylimidazolium tetrafluoroborate], the surface tension liquid-gas is 43.6 ± 1.3 mN/m (298 K); 43.3 ± 1.2 mN/m (303 K); 43 ± 1.2 mN/m (308 K); 42.7 ± 1.2 mN/m (313 K); 42.3 ± 1.2 mN/m (318 K); 42 ± 1.2 mN/m (323 K). The surface tension liquid-gas (328 K) is 41.8 ± 1.2 mN/m; the surface tension liquid-gas (333 K) worked out at 41.5 ± 1.2 mN/m; the surface tension liquid-gas (338 K) was 41.2 ± 1.2 mN/m; the surface tension liquid-gas (343 K) worked out at 40.9 ± 1.2 mN/m; the surface tension liquid-gas (348 K) was 40.7 ± 1.2 mN/m; the surface tension liquid-gas (353 K) worked out at 40.4 ± 1.2 mN/m. For the same molecule, the surface tension liquid-gas (358 K) stood at 40.2 ± 1.2 mN/m; the surface tension liquid-gas (363 K) was 39.8 ± 1.2 mN/m; the surface tension liquid-gas (368 K) is on record as 39.5 ± 1.2 mN/m; the surface tension liquid-gas (373 K) was 39.2 ± 1.2 mN/m; the surface tension liquid-gas (378 K) is 39 ± 1.2 mN/m; the surface tension liquid-gas (383 K) is 38.8 ± 1.1 mN/m. For the same molecule, the surface tension liquid-gas was 38.5 ± 1.1 mN/m (388 K) and 38.2 ± 1.1 mN/m (393 K).
Regarding `CCCCCCn1cc[n+](C)c1.[Cl-]` [1-hexyl-3-methylimidazolium chloride], the surface tension liquid-gas came to 41.8 ± 1.2 mN/m (298 K); 41.5 ± 1.2 mN/m (303 K); 41.2 ± 1.2 mN/m (308 K); 40.8 ± 1.2 mN/m (313 K); 40.5 ± 1.2 mN/m (318 K); 40.2 ± 1.2 mN/m (323 K). In addition, the surface tension liquid-gas reads like this: (328 K) 40 ± 1.2 mN/m; (333 K) 39.8 ± 1.2 mN/m; (338 K) 39.4 ± 1.2 mN/m; (343 K) 39.1 ± 1.2 mN/m; (348 K) 38.8 ± 1.2 mN/m; (353 K) 38.5 ± 1.1 mN/m. For the same molecule, the surface tension liquid-gas runs as follows: (358 K) 38.3 ± 1.1 mN/m; (363 K) 37.9 ± 1.1 mN/m; (368 K) 37.7 ± 1.1 mN/m; (373 K) 37.4 ± 1.1 mN/m; (378 K) 37.1 ± 1.1 mN/m; (383 K) 36.8 ± 1.1 mN/m. For the same molecule, the surface tension liquid-gas by setting is: (388 K) 36.5 ± 1.1 mN/m; (393 K) 36.2 ± 1.1 mN/m.
Regarding `CCCCCCCC[n+]1ccn(C)c1.[Cl-]` [1-methyl-3-octylimidazolium chloride], the surface tension liquid-gas (298 K) was found to be 31.9 ± 1 mN/m; the surface tension liquid-gas (303 K) stood at 31.7 ± 1 mN/m; the surface tension liquid-gas (308 K) was found to be 31.5 ± 1 mN/m; the surface tension liquid-gas (313 K) was 31.2 ± 1 mN/m; the surface tension liquid-gas (318 K) is 30.9 ± 1 mN/m; the surface tension liquid-gas (323 K) was found to be 30.6 ± 1 mN/m. The surface tension liquid-gas runs as follows: (328 K) 30.3 ± 1 mN/m; (333 K) 30 ± 1 mN/m; (338 K) 29.7 ± 1 mN/m; (343 K) 29.5 ± 1 mN/m; (348 K) 29.2 ± 1 mN/m; (353 K) 28.9 ± 0.9 mN/m. Further, the surface tension liquid-gas is, setting by setting: (358 K) 28.7 ± 0.9 mN/m; (363 K) 28.4 ± 0.9 mN/m; (368 K) 28.2 ± 0.9 mN/m; (373 K) 27.9 ± 0.9 mN/m; (378 K) 27.6 ± 0.9 mN/m; (383 K) 27.4 ± 0.9 mN/m. For the same molecule, the surface tension liquid-gas (388 K) stood at 27 ± 0.9 mN/m and the surface tension liquid-gas (393 K) worked out at 26.7 ± 0.9 mN/m.
Consider `CCCCn1cc[n+](C)c1.F[P-](F)(F)(F)(F)F` [1-butyl-3-methylimidazolium hexafluorophosphate], for which the surface tension liquid-gas (298 K) stood at 47.5 ± 1.3 mN/m; the surface tension liquid-gas (303 K) is given as 47.2 ± 1.3 mN/m; the surface tension liquid-gas (308 K) is given as 46.9 ± 1.3 mN/m; the surface tension liquid-gas (313 K) is given as 46.5 ± 1.3 mN/m; the surface tension liquid-gas (318 K) came to 46 ± 1.3 mN/m; the surface tension liquid-gas (323 K) stood at 45.6 ± 1.3 mN/m. Besides, the surface tension liquid-gas (328 K) was 45.3 ± 1.3 mN/m; the surface tension liquid-gas (333 K) worked out at 44.9 ± 1.3 mN/m; the surface tension liquid-gas (338 K) turned out to be 44.6 ± 1.3 mN/m; the surface tension liquid-gas (343 K) was determined as 44.3 ± 1.3 mN/m; the surface tension liquid-gas (348 K) is recorded as 43.8 ± 1.3 mN/m; the surface tension liquid-gas (353 K) came to 43.5 ± 1.3 mN/m. Also, the surface tension liquid-gas runs as follows: (358 K) 43.1 ± 1.2 mN/m; (363 K) 42.8 ± 1.2 mN/m; (368 K) 42.4 ± 1.2 mN/m; (373 K) 42.1 ± 1.2 mN/m; (378 K) 41.7 ± 1.2 mN/m; (383 K) 41.3 ± 1.2 mN/m. Further, the surface tension liquid-gas (388 K) worked out at 41.1 ± 1.2 mN/m and the surface tension liquid-gas (393 K) turned out to be 40.8 ± 1.2 mN/m.
For the molecule `CCCCn1cc[n+](C)c1.[I-]` [1-butyl-3-methylimidazolium iodide], the surface tension liquid-gas reads like this: (298 K) 53.3 ± 1.5 mN/m; (303 K) 52.9 ± 1.5 mN/m; (308 K) 52.5 ± 1.5 mN/m; (313 K) 52.1 ± 1.5 mN/m; (318 K) 51.5 ± 1.4 mN/m; (323 K) 51.1 ± 1.4 mN/m. Further, the surface tension liquid-gas is 50.7 ± 1.4 mN/m (328 K); 50.3 ± 1.4 mN/m (333 K); 49.9 ± 1.4 mN/m (338 K); 49.4 ± 1.4 mN/m (343 K); 49 ± 1.4 mN/m (348 K); 48.6 ± 1.4 mN/m (353 K). In addition, the surface tension liquid-gas (358 K) is 48.2 ± 1.4 mN/m; the surface tension liquid-gas (363 K) was 47.8 ± 1.4 mN/m; the surface tension liquid-gas (368 K) turned out to be 47.4 ± 1.3 mN/m; the surface tension liquid-gas (373 K) worked out at 47.1 ± 1.3 mN/m; the surface tension liquid-gas (378 K) is on record as 46.7 ± 1.3 mN/m; the surface tension liquid-gas (383 K) is given as 46.3 ± 1.3 mN/m. Further, the surface tension liquid-gas came out at 46 ± 1.3 mN/m (388 K) and 45.6 ± 1.3 mN/m (393 K).
As to `CCCCCCn1cc[n+](C)c1.F[B-](F)(F)F` [1-hexyl-3-methylimidazolium tetrafluoroborate], the surface tension liquid-gas (298 K) was found to be 39.2 ± 1.2 mN/m; the surface tension liquid-gas (303 K) is listed as 38.9 ± 1.2 mN/m; the surface tension liquid-gas (308 K) was 38.7 ± 1.1 mN/m; the surface tension liquid-gas (313 K) is on record as 38.4 ± 1.1 mN/m; the surface tension liquid-gas (318 K) stood at 38.1 ± 1.1 mN/m; the surface tension liquid-gas (323 K) amounted to 37.9 ± 1.1 mN/m. The surface tension liquid-gas was 37.7 ± 1.1 mN/m (328 K); 37.5 ± 1.1 mN/m (333 K); 37.2 ± 1.1 mN/m (338 K); 36.9 ± 1.1 mN/m (343 K); 36.6 ± 1.1 mN/m (348 K); 36.4 ± 1.1 mN/m (353 K). The surface tension liquid-gas runs as follows: (358 K) 36.2 ± 1.1 mN/m; (363 K) 35.8 ± 1.1 mN/m; (368 K) 35.6 ± 1.1 mN/m; (373 K) 35.4 ± 1.1 mN/m; (378 K) 35.1 ± 1.1 mN/m; (383 K) 34.9 ± 1.1 mN/m. Also, the surface tension liquid-gas stood at 34.6 ± 1.1 mN/m (388 K) and 34.3 ± 1.1 mN/m (393 K).
As to `CCCCCCn1cc[n+](C)c1.F[P-](F)(F)(F)(F)F` [1-hexyl-3-methylimidazolium hexafluorophosphate], the surface tension liquid-gas reads like this: (298 K) 43.4 ± 1.3 mN/m; (303 K) 43 ± 1.2 mN/m; (308 K) 42.6 ± 1.2 mN/m; (313 K) 42.3 ± 1.2 mN/m; (318 K) 41.9 ± 1.2 mN/m; (323 K) 41.5 ± 1.2 mN/m. For the same molecule, the surface tension liquid-gas was found to be 41.1 ± 1.2 mN/m (328 K); 40.8 ± 1.2 mN/m (333 K); 40.5 ± 1.2 mN/m (338 K); 40.2 ± 1.2 mN/m (343 K); 39.8 ± 1.2 mN/m (348 K); 39.5 ± 1.2 mN/m (353 K). Besides, the surface tension liquid-gas (358 K) is given as 39.1 ± 1.2 mN/m and the surface tension liquid-gas (363 K) amounted to 38.8 ± 1.2 mN/m.
On to `CCCCCCn1cc[n+](C)c1.[I-]` [1-hexyl-3-methylimidazolium iodide], for which the surface tension liquid-gas (298 K) was determined as 43.5 ± 1.3 mN/m; the surface tension liquid-gas (303 K) is listed as 43.1 ± 1.2 mN/m; the surface tension liquid-gas (308 K) was determined as 42.7 ± 1.2 mN/m; the surface tension liquid-gas (313 K) is 42.3 ± 1.2 mN/m; the surface tension liquid-gas (318 K) was found to be 41.9 ± 1.2 mN/m; the surface tension liquid-gas (323 K) is 41.5 ± 1.2 mN/m. In addition, the surface tension liquid-gas runs as follows: (328 K) 41.1 ± 1.2 mN/m; (333 K) 40.8 ± 1.2 mN/m; (338 K) 40.4 ± 1.2 mN/m; (343 K) 40.1 ± 1.2 mN/m; (348 K) 39.7 ± 1.2 mN/m; (353 K) 39.4 ± 1.2 mN/m. The surface tension liquid-gas is, setting by setting: (358 K) 39 ± 1.2 mN/m; (363 K) 38.6 ± 1.1 mN/m; (368 K) 38.3 ± 1.1 mN/m; (373 K) 37.9 ± 1.1 mN/m; (378 K) 37.6 ± 1.1 mN/m; (383 K) 37.2 ± 1.1 mN/m. The surface tension liquid-gas runs as follows: (388 K) 36.8 ± 1.1 mN/m; (393 K) 36.5 ± 1.1 mN/m.
